Publication PMC11258623 (ESMO Open, 2024)

Tests used:
[1] = tested on: patients with advanced solid tumors; assay type: in vivo, human
[2] = Paclitaxel plasma pharmacokinetics; assay type: in vivo, human; details: paclitaxel 60 mg/m^2; with daily oral TAK-659
CYP3A4 = details: overlapping elimination mechanisms; cited from earlier work
[3] = tested on: patients with acute myeloid leukemia (AML); details: TAK-659 monotherapy, doses of up to 160 mg daily; cited from earlier work
[4] = TAK-659 plasma pharmacokinetics; assay type: in vivo, human; details: for AUC0-t increase from day 1 to day 15 / clearance decrease from day 1 to day 15: with paclitaxel

Compound	patients with paclitaxel dose reduced ([1]; Nine of 49 patients, given with TAK-659) [%]	increase in exposure (AUC), cycle 1 day 15 compared with cycle 1 day 1 [2] [%]	reduction in clearance, cycle 1 day 15 compared with cycle 1 day 1 [2] [%]	substrate for CYP3A4, a major drug metabolizing enzyme (CYP3A4)	patients with dose of TAK-659 reduced ([1]; Six of 49 patients, given with paclitaxel) [%]	recommended phase II dose of TAK-659 ([1]; oral, combined with paclitaxel) [mg daily]	patients who needed a second dose reduction of TAK-659 ([1]; two of 49 patients, given with paclitaxel) [%]	MTD [3]	increase in terminal elimination half-life from day 1 to day 15 ([4]; 60-mg dosing cohort, not statistically significant (P = 0.1650)) [%]	AUC0-t increase from day 1 to day 15 ([4]; 60-mg dosing group) [%]	clearance decrease from day 1 to day 15 ([4]; 60-mg dosing group) [%]	AUC0-t increase from day 1 to day 15 ([4]; 80-mg dosing group) [%]	clearance decrease from day 1 to day 15 ([4]; 80-mg dosing group) [%]	AUC0-t increase from day 1 to day 15 ([4]; 100-mg dosing group) [%]	clearance decrease from day 1 to day 15 ([4]; 100-mg dosing group) [%]
CC(=O)O[C@H]1C(=O)[C@@]2(C)[C@H]([C@H](OC(=O)c3ccccc3)[C@]3(O)C[C@H](OC(=O)[C@H](O)[C@@H](NC(=O)c4ccccc4)c4ccccc4)C(C)=C1C3(C)C)[C@]1(OC(C)=O)CO[C@@H]1C[C@@H]2O [Paclitaxel, paclitaxel, reference compound]	18	~28	~20	substrates	–	–	–	–	–	–	–	–	–	–	–
Cn1cc(-c2nc(N[C@@H]3CCCC[C@@H]3N)c(F)c3c2C(=O)NC3)cn1 [TAK-659, mivavotinib]	–	–	–	substrates	12	80	4	not reached	41	40	36	66	31	91	46
